Values quoted from earlier work, collected in patent publication US20150315247A1, “High-affinity peptide-based anticancer vaccination to overcome tumor resistance to immunostimulatory antibodies and to identify TCRs that can be used successfully in adoptive T cell therapy” (priority 2014, published 2015).

Target: T1, H-2K^b (mouse MHC) (Mus musculus, UniProt P01901)
T1 sequence (P01901 22-369): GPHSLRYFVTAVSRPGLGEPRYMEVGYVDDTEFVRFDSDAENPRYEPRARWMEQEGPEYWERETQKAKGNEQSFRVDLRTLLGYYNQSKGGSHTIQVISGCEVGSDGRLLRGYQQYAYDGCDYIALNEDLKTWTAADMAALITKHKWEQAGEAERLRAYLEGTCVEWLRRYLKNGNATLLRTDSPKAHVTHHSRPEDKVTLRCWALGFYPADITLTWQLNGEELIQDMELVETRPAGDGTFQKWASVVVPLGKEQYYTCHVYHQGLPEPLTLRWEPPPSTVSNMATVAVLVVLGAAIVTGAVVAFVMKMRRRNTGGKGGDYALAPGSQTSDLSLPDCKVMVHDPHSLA
T1 sequence (P01887 21-119 partner): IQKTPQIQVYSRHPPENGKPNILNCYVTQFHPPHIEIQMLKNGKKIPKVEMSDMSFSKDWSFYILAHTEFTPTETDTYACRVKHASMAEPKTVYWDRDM
Settings: SIINFEKL peptide binding to H-2K^b; read-out: peptide-H-2K^b affinity IC50

SIINFEKL [SIINFEKL peptide]
IC50: 0.9 nM
